Data taken from the supplement of paper PMC11061612.

Assays:
Experiment in all cases: combination Emax (second highest fraction inhibited in the dose matrix, 72 h); higher = more inhibition; extreme values may be limits of the assay
[1] = test system: NCI-H650 (Lung Adenocarcinoma)
How it was run: (§1)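 Cell lines in DMEM/F12 or RPMI with 10% FBS were plated in 1536-well plates, held 24 hours at 37°C, 5% CO2, then given two-drug dose matrices for 72 hours (DMSO typically 0.2%). Viability was read by CellTiter-Glo 2.0 luminescence and scaled as inhibition from 0 (vehicle wells) to 1 (blank wells). Combination Emax is the second-highest inhibition in the matrix; Bliss excess is observed combination effect minus expected EA + EB − EA·EB, EA and EB being single-agent effects.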

[2] = test system: HCC1500 (Breast Carcinoma)
How it was run: as §1

[3] = test system: NCI-H1993 (Lung Adenocarcinoma)
How it was run: as §1

[4] = test system: MOG-G-UVW (Low Grade Glioma)
How it was run: as §1

| Compound | combination Emax [1] | combination Emax [2] | combination Emax [3] | combination Emax [4] |
| --- | --- | --- | --- | --- |
| CN(C)CCCOc1ccc(-c2ccc3ncc4c(c3c2)n(C2CCOCC2)c(=O)n4C)cn1 [AZD0156] + O=C(c1cc(Cc2n[nH]c(=O)c3ccccc23)ccc1F)N1CCN(C(=O)C2CC2)CC1 [Olaparib] (first compound max 3 µM, partner max 3 µM) | 0.149 | 0.403 | 0.498 | 0.632 |
| C=CCn1c(=O)c2cnc(Nc3ccc(N4CCN(C)CC4)cc3)nc2n1-c1cccc(C(C)(C)O)n1 [AZD1775] + C1CN(CCC1(C(=O)N[C@@H](CCO)C2=CC=C(C=C2)Cl)N)C3=NC=NC4=C3C=CN4 [Capivasertib] (first compound max 3 µM, partner max 3 µM) | 0.786 | 0.413 | 0.701 | 0.891 |
| C=CCn1c(=O)c2cnc(Nc3ccc(N4CCN(C)CC4)cc3)nc2n1-c1cccc(C(C)(C)O)n1 [AZD1775] + C[C@@H]1COCCN1C2=NC(=NC(=C2)C3(CC3)[S@](=N)(=O)C)C4=C5C=CNC5=NC=C4 [AZD6738] (first compound max 1 µM, partner max 10 µM) | 0.329 | 0.382 | 0.689 | 0.922 |
| C=CCn1c(=O)c2cnc(Nc3ccc(N4CCN(C)CC4)cc3)nc2n1-c1cccc(C(C)(C)O)n1 [AZD1775] + O=C(c1cc(Cc2n[nH]c(=O)c3ccccc23)ccc1F)N1CCN(C(=O)C2CC2)CC1 [Olaparib] (first compound max 1 µM, partner max 10 µM) | 0.316 | 0.227 | 0.604 | 0.864 |
| CCN(CCO)CCCOc1ccc2c(Nc3cc(CC(=O)Nc4cccc(F)c4)[nH]n3)ncnc2c1 [AZD2811] + C=CCn1c(=O)c2cnc(Nc3ccc(N4CCN(C)CC4)cc3)nc2n1-c1cccc(C(C)(C)O)n1 [AZD1775] (first compound max 1 µM, partner max 1 µM) | 0.301 | 0.227 | 0.458 | 0.771 |
| CCN(CCO)CCCOc1ccc2c(Nc3cc(CC(=O)Nc4cccc(F)c4)[nH]n3)ncnc2c1 [AZD2811] + C[C@@H]1COCCN1C2=NC(=NC(=C2)C3(CC3)[S@](=N)(=O)C)C4=C5C=CNC5=NC=C4 [AZD6738] (first compound max 1 µM, 7x7, partner max 10 µM) | 0.117 | 0.312 | 0.513 | 0.783 |
| CCN(CCO)CCCOc1ccc2c(Nc3cc(CC(=O)Nc4cccc(F)c4)[nH]n3)ncnc2c1 [AZD2811] + O=C(c1cc(Cc2n[nH]c(=O)c3ccccc23)ccc1F)N1CCN(C(=O)C2CC2)CC1 [Olaparib] (first compound max 1 µM, 7x7, partner max 10 µM) | 0.164 | 0.22 | 0.191 | 0.668 |
| CN(CCO)CC[C@H](CSc1ccccc1)Nc1ccc(S(=O)(=O)NC(=O)c2ccc(N3CCC([C@@H](O)c4ccccc4-c4ccc(Cl)cc4)CC3)cc2)cc1S(=O)(=O)C(F)(F)F [AZD4320] + CN(C)CCCOc1ccc(-c2ccc3ncc4c(c3c2)n(C2CCOCC2)c(=O)n4C)cn1 [AZD0156] (first compound max 1 µM, 7x7, partner max 1 µM) | 0.203 | 0.998 | 0.742 | 0.135 |
| COc1nnc2ccc(N3CCC(c4ccc(OCCN5CCN(C)C(=O)[C@H]5C)cc4)CC3)nn12 [AZD5153] + C=CCn1c(=O)c2cnc(Nc3ccc(N4CCN(C)CC4)cc3)nc2n1-c1cccc(C(C)(C)O)n1 [AZD1775] (first compound max 1 µM, partner max 1 µM) | 0.487 | 0.402 | 0.545 | 0.711 |
| COc1nnc2ccc(N3CCC(c4ccc(OCCN5CCN(C)C(=O)[C@H]5C)cc4)CC3)nn12 [AZD5153] + CC1(C)CCC(CN2CCN(c3ccc(C(=O)NS(=O)(=O)c4ccc(NCC5CCOCC5)c([N+](=O)[O-])c4)c(Oc4cnc5[nH]ccc5c4)c3)CC2)=C(c2ccc(Cl)cc2)C1 [Venetoclax] (first compound max 1 µM, 7x7, partner max 1 µM) | 0.381 | 0.755 | 0.444 | 0.715 |
| COc1nnc2ccc(N3CCC(c4ccc(OCCN5CCN(C)C(=O)[C@H]5C)cc4)CC3)nn12 [AZD5153] + CCN(CCO)CCCOc1ccc2c(Nc3cc(CC(=O)Nc4cccc(F)c4)[nH]n3)ncnc2c1 [AZD2811] (first compound max 1 µM, 7x7, partner max 1 µM) | 0.443 | 0.41 | 0.479 | 0.802 |
| COc1nnc2ccc(N3CCC(c4ccc(OCCN5CCN(C)C(=O)[C@H]5C)cc4)CC3)nn12 [AZD5153] + C[C@@H]1COCCN1C2=NC(=NC(=C2)C3(CC3)[S@](=N)(=O)C)C4=C5C=CNC5=NC=C4 [AZD6738] (first compound max 1 µM, 7x7, partner max 10 µM) | 0.51 | 0.454 | 0.738 | 0.769 |
| COc1nnc2ccc(N3CCC(c4ccc(OCCN5CCN(C)C(=O)[C@H]5C)cc4)CC3)nn12 [AZD5153] + Cc1c2c(nn1C)CSCc1cc(n(C)n1)CSc1cc(c3ccccc3c1)OCCCc1c(C(=O)O)n(C)c3c-2c(Cl)ccc13 [AZD5991] (first compound max 1 µM, 7x7, partner max 1 µM) | 0.768 | 0.696 | 0.552 | 0.763 |
| COc1nnc2ccc(N3CCC(c4ccc(OCCN5CCN(C)C(=O)[C@H]5C)cc4)CC3)nn12 [AZD5153] + Cn1cnc2c(F)c(Nc3ccc(Br)cc3Cl)c(C(=O)NOCCO)cc21 [Selumetinib] (first compound max 1 µM, 7x7, partner max 10 µM) | 0.656 | 0.387 | 0.915 | 0.658 |
| Cc1c2c(nn1C)CSCc1cc(n(C)n1)CSc1cc(c3ccccc3c1)OCCCc1c(C(=O)O)n(C)c3c-2c(Cl)ccc13 [AZD5991] + C1CN(CCC1(C(=O)N[C@@H](CCO)C2=CC=C(C=C2)Cl)N)C3=NC=NC4=C3C=CN4 [Capivasertib] (first compound max 1 µM, 7x7, partner max 3 µM) | 0.209 | 0.377 | 0.461 | 0.444 |
| Cc1c2c(nn1C)CSCc1cc(n(C)n1)CSc1cc(c3ccccc3c1)OCCCc1c(C(=O)O)n(C)c3c-2c(Cl)ccc13 [AZD5991] + C=CCn1c(=O)c2cnc(Nc3ccc(N4CCN(C)CC4)cc3)nc2n1-c1cccc(C(C)(C)O)n1 [AZD1775] (first compound max 1 µM, partner max 1 µM) | 0.748 | 0.49 | 0.629 | 0.761 |
| Cc1c2c(nn1C)CSCc1cc(n(C)n1)CSc1cc(c3ccccc3c1)OCCCc1c(C(=O)O)n(C)c3c-2c(Cl)ccc13 [AZD5991] + CC1(C)CCC(CN2CCN(c3ccc(C(=O)NS(=O)(=O)c4ccc(NCC5CCOCC5)c([N+](=O)[O-])c4)c(Oc4cnc5[nH]ccc5c4)c3)CC2)=C(c2ccc(Cl)cc2)C1 [Venetoclax] (first compound max 1 µM, 7x7, partner max 1 µM) | 0.329 | 1 | 0.325 | 0.257 |
| Cc1c2c(nn1C)CSCc1cc(n(C)n1)CSc1cc(c3ccccc3c1)OCCCc1c(C(=O)O)n(C)c3c-2c(Cl)ccc13 [AZD5991] + CCN(CCO)CCCOc1ccc2c(Nc3cc(CC(=O)Nc4cccc(F)c4)[nH]n3)ncnc2c1 [AZD2811] (first compound max 1 µM, 7x7, partner max 1 µM) | 0.61 | 0.53 | 0.232 | 0.696 |
| Cc1c2c(nn1C)CSCc1cc(n(C)n1)CSc1cc(c3ccccc3c1)OCCCc1c(C(=O)O)n(C)c3c-2c(Cl)ccc13 [AZD5991] + CN(C)CCCOc1ccc(-c2ccc3ncc4c(c3c2)n(C2CCOCC2)c(=O)n4C)cn1 [AZD0156] (first compound max 1 µM, 7x7, partner max 1 µM) | 0.272 | 0.53 | 0.474 | 0.247 |
| Cc1c2c(nn1C)CSCc1cc(n(C)n1)CSc1cc(c3ccccc3c1)OCCCc1c(C(=O)O)n(C)c3c-2c(Cl)ccc13 [AZD5991] + C[C@@H]1COCCN1C2=NC(=NC(=C2)C3(CC3)[S@](=N)(=O)C)C4=C5C=CNC5=NC=C4 [AZD6738] (first compound max 1 µM, 7x7, partner max 10 µM) | 0.352 | 0.781 | 0.517 | 0.756 |
